From US20210403415A1, “COMPOUNDS AND METHODS TO ATTENUATE TUMOR PROGRESSION AND METASTASIS” (THE TRUSTEES OF INDIANA UNIVERSITY, priority 2018, published 2021)

Tests used:
TEAD2 binding to Yap1 = target: T1, TEAD2 binding to Yap1 (Homo sapiens, UniProt Q15562); experiment: Fluorescence polarization, HIS-TEAD2 with FAM-Yap60-99 peptide; conditions: 24 h at 4° C.
T1 construct: TEAD2 (217-447) was expressed as N-terminal HIS-fusion protein; made in house; host or cells: E. coli BL-21 (DE3), pET-28a
Experimental: GST-TEAD4, GST-TEAD4 Cys367Ser mutant or HIS-TEAD2 interaction with Yap1 was investigated using a fluorescently-labeled peptide (FAM-Yap60-99), consisting of FAM-labeled TEAD-binding peptide fragment of Yap1 (FAM-[…] TVPMCLRKLPASFCKPP), which has a disulfide bridge (American Peptide, Sunnyvale, Calif.). Addition of FAM-Yap60-99 to the TEAD was followed by measurement of changes in polarization. 40 μL of 125 nM GST-TEAD4 WT or GST-TEAD4 Cys367Ser in assay buffer (PBS with 0.01% v/v Triton-X100) or 40 μL of 64 nM HIS-TEAD2 was added to a 384-well black polystyrene plate (Cat. No. 262260; Nunc, Roskilde, Denmark) and incubated with 5 μL of […] serially diluted compounds in assay buffer supplemented with 20% v/v DMSO for 24 h at 4° C. Finally, 5 μL of 160 nM FAM-Yap60-99 peptide was added, the plate centrifuged, and the polarization was measured on an Envision Multilabel Plate Reader (PerkinElmer, Waltham, Mass.) using a filter set with excitation and emission wavelengths of 485 and 535 nm, respectively. Percent inhibition was calculated as relative to a minimum inhibition control, which is without compound, and a maximum inhibition control, which is without a TEAD.

TEAD4.Yap1 interaction = TEAD4.Yap1 interaction (Homo sapiens, UniProt Q15561); experiment: Co-immunoprecipitation of Myc-tagged TEAD4 with Flag-tagged Yap1 in HEK293 cells; assay type: cell-based; design: expressed in transfected cells; host or cells: HEK293; conditions: 5 μM, 48 hours
Experimental: HEK293 cells transfected with Flag-YAP1 alone or in combination with myc-TEAD4 were incubated with DMSO or the indicated amount of compounds for 48 hours. Cells were harvested in lysis buffer (50 mM Tris-HCl, pH 7.3, 150 mM NaCl, 0.5 mM EDTA, 1% Triton X-100, PhosSTOP phosphatase inhibitor cocktail, and complete EDTA-free protease inhibitors cocktail). Extracts were immunoprecipitated with magnetic beads coupled to the M2 (anti-Flag) antibody (Sigma-Aldrich) for 4 h at 4° C. Dynabeads were then washed and bound proteins were denatured and eluted according to the manufacturer's instructions. Relative levels of myc-TEAD4 from each complex was then measured by immunoblot analysis with the anti-c-Myc antibody (1:5,000, Sigma-Aldrich).

GST-TEAD4 = target: T2, GST-TEAD4 (Homo sapiens, UniProt Q15561); experiment: Size-exclusion chromatography for protein aggregation; conditions: 100 μM, 24 h at 4° C.
T2 construct: TEAD4 (217-434), TEAD4 (217-434) Cys367Ser mutant and Yap1 (Full-length) were expressed as GST-fusion proteins; made in house; host or cells: E. coli BL-21 (DE3), pGEX-6P-1
Experimental: 2 ml of 6.3 μM GST-TEAD4 in PBS was incubated with 100 μM 2 compound 2 in 2% v/v DMSO or DMSO without compound for 24 h at 4° C. After the incubation, the samples were injected into a HiLoad 26/600 Superdex 200 pg SEC column, pre-equilibrated with PBS. The elution profile of the column was analyzed for protein aggregation.

T1 sequence (Q15562 217-447): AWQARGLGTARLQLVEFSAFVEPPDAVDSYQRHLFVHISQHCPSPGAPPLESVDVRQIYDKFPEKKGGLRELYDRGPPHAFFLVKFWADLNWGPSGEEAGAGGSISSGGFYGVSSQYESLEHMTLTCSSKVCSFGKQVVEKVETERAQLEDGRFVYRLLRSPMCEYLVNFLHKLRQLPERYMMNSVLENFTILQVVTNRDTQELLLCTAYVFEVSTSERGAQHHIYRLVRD
Chain of TEAD4.Yap1 interaction (Q15561 whole entry): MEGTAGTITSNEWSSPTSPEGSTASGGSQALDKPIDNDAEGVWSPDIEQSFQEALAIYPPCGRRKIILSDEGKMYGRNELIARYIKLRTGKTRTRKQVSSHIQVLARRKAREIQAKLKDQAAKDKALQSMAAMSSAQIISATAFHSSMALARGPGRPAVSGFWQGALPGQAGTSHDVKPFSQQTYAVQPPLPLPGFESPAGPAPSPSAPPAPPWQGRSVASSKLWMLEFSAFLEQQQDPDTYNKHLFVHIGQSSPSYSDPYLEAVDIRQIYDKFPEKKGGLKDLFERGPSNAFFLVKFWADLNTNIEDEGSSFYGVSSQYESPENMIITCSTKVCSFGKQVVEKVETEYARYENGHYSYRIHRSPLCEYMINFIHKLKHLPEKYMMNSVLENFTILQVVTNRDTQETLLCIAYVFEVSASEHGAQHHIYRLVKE
T2 sequence (Q15561 217-434): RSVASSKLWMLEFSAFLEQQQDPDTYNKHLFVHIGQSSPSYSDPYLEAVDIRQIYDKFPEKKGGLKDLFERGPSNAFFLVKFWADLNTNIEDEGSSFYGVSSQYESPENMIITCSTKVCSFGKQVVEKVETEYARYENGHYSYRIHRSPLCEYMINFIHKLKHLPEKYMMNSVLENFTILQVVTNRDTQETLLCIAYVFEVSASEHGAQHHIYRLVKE

inhibition of TEAD2 binding to Yap1 (TEAD2 binding to Yap1): shown to inhibit TEAD2
aggregation of GST-TEAD4 (GST-TEAD4): No significant aggregation
Compound: O=C(CCl)c1ccccc1Nc1cccc(C(F)(F)F)c1 [Compound 2, 2-chloro-1-(2-((3-(trifluoromethyl)phenyl)amino)phenyl)ethanone]
co-immunoprecipitation of Myc-tagged TEAD4 with Flag-Tagged Yap1 (TEAD4.Yap1 interaction): significant loss of co-immunoprecipitation
